# From US7485657B2, “Anti-cytokine heterocyclic compounds” (Boehringer Ingelheim Pharmaceuticals, Inc., priority 2004, dated 2009)
# Counter-ions that a name gives are not always drawn.
row,melting point,SMILES
1,104 to 111 °C (dec.),"CCOC(=O)c1cc(N)n(-c2cc(C(=O)Nc3cc(C(C)(C)C)cc(NS(C)(=O)=O)c3OC)ccc2C)n1 (as salt: TFA) [Example 1, 5-amino-1-[5-(5-tert-butyl-3-methanesulfonylamino-2-methoxy-phenylcarbamoyl)-2-methyl-phenyl]-1H-pyrazole-3-carboxylic acid ethyl ester]"
2,125 to 130 °C,"CCOC(=O)c1cnn(-c2cc(C(=O)Nc3cc(C(C)(C)C)cc(NS(C)(=O)=O)c3OC)ccc2C)c1 [Example 2, 1-[5-(5-tert-butyl-3-methanesulfonylamino-2-methoxy-phenylcarbamoyl)-2-methyl-phenyl]-1H-pyrazole-4-carboxylic acid ethyl ester]"
3,127 to 133 °C,"COc1c(NC(=O)c2ccc(C)c(-n3cc(C(=O)NCc4cccnc4)cn3)c2)cc(C(C)(C)C)cc1NS(C)(=O)=O [Example 4, 1-[5-(5-tert-Butyl-3-methanesulfonylamino-2-methoxy-phenylcarbamoyl)-2-methyl-phenyl]-1H-pyrazole-4-carboxylic acid (pyridin-3-ylmethyl)-amide]"
